Assay [1] concerns the target T1, Human PDGFRβ, cytoplasmic domain (GST-PDGFRβ) (Homo sapiens, UniProt P09619).
T1 construct: made in house
In words: Human PDGFRβ biochemical inhibition assay (off-chip Mobility Shift Assay). The gist of the method: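 GST-tagged cytoplasmic domain (aa 557-1106) from baculovirus was incubated 1 h at room temperature with compound, CSKtide, ATP at Km and Mg²⁺ in HEPES buffer, pH 7.5. Phosphorylated and unphosphorylated peptide were separated by off-chip mobility shift, and the product ratio P/(P+S) gave percent inhibition.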

Assay [2] has as its target T2, Human PDGFRα, cytoplasmic domain (GST-PDGFRα) (Homo sapiens, UniProt P16234).
T2 construct: made in house
In words: Human PDGFRα biochemical inhibition assay (off-chip Mobility Shift Assay).

pIC50: −log10 of the molar value.

T1 sequence (P09619 with tags, fused parts or gaps): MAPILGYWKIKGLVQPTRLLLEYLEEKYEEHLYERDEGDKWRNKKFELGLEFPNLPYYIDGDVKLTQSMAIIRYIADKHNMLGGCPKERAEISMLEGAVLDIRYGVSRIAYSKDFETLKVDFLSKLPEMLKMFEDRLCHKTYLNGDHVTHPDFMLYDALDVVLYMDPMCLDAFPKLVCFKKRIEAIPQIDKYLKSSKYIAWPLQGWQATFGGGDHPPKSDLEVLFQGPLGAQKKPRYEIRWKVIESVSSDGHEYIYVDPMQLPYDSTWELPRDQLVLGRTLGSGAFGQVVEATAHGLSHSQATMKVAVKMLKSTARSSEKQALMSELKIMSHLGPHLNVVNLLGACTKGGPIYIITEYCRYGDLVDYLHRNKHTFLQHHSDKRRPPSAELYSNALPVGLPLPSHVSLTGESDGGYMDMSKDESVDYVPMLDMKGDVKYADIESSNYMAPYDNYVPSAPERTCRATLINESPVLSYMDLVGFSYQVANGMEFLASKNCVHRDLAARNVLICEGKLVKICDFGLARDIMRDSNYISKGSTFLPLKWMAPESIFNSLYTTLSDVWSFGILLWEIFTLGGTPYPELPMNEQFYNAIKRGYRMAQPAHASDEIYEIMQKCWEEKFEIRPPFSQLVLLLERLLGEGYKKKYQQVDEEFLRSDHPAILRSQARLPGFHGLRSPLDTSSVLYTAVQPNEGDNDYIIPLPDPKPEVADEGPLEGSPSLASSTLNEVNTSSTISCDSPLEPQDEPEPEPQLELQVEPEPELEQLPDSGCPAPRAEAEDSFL
T2 sequence (P16234 550-1089 T674I): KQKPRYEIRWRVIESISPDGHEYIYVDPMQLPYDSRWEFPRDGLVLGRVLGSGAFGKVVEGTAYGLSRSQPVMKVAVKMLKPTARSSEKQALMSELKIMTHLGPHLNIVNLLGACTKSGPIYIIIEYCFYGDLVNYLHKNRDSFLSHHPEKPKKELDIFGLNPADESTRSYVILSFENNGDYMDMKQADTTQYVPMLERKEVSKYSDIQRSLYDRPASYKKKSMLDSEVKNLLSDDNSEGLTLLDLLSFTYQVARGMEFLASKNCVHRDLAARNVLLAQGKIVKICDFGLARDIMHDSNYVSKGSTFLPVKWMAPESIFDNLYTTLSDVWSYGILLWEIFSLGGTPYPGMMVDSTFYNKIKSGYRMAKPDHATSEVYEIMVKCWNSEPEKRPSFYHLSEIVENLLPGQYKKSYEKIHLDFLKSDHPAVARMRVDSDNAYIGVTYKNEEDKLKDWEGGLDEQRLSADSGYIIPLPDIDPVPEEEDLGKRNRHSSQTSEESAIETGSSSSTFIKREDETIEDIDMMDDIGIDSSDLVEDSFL

By pIC50 is commonly meant −log10 of the IC50, conventionally taken in molar units. On to `Cc1cc2ncc(N[C@@H](C)c3cc(NC(=O)c4cnn(C5CCC5)c4)ccc3F)nc2s1` [Compound 613, (S)-1-cyclobutyl-N-(4-fluoro-3-(1-((6-methylthieno[2,3-b]pyrazin-3-yl)amino)ethyl)phenyl)-1H-pyrazole-4-carboxamide], for which the pIC50 in assay [1] and in assay [2] was above 6.52 in each case.
Turning to `Cc1cc2ncc(N[C@@H](C)c3cc(NC(=O)c4ccc(C(F)(F)F)nc4)ccc3F)nc2o1` [Compound 614, (S)-N-(4-fluoro-3-(1-((6-methylfuro[2,3-b]pyrazin-3-yl)amino)ethyl)phenyl)-6-(trifluoromethyl)nicotinamide], the pIC50 in assay [1] and in assay [2] was above 6.52 each time.
With `Cc1cc2ncc(N[C@@H](C)c3cc(NC(=O)c4ccc(C(F)(F)F)nc4)ccc3F)nc2s1` [Compound 615, (S)-N-(4-fluoro-3-(1-((6-methylthieno[2,3-b]pyrazin-3-yl)amino)ethyl)phenyl)-6-(trifluoromethyl)nicotinamide], the pIC50 in assay [1] and in assay [2] was above 6.52 each time.
Turning to `C[C@H](Nc1cnc2cc(C3CC3)sc2n1)c1cc(NC(=O)c2ccc(C(F)(F)F)nc2)ccc1F` [Compound 616, (S)-N-(3-(1-((6-cyclopropylthieno[2,3-b]pyrazin-3-yl)amino)ethyl)-4-fluorophenyl)-6-(trifluoromethyl)nicotinamide], the pIC50 in assay [1] and in assay [2] was above 6.52 throughout.
Regarding `C[C@H](Nc1cnc2ccoc2n1)c1cc(NC(=O)c2ccc(C(F)(F)F)nc2)ccc1F` [Compound 617, (S)-N-(4-fluoro-3-(1-(furo[2,3-b]pyrazin-3-ylamino)ethyl)phenyl)-6-(trifluoromethyl) nicotinamide], the pIC50 in assay [1] and in assay [2] was above 6.52 in each case.
`C[C@H](Nc1cnc2cc(C(F)F)sc2n1)c1cc(NC(=O)c2ccc(C(F)(F)F)nc2)ccc1F` [Compound 618, (S)-N-(3-(1-((6-(difluoromethyl)thieno[2,3-b]pyrazin-3-yl)amino)ethyl)-4-fluorophenyl)-6-(trifluoromethyl)nicotinamide]: the pIC50 in assay [1] and in assay [2] was above 6.52 throughout.
Regarding `CCc1cc2ncc(N[C@@H](C)c3cc(NC(=O)c4ccc(C(F)(F)F)nc4)ccc3F)nc2o1` [Compound 619, (S)-N-(3-(1-((6-ethylfuro[2,3-b]pyrazin-3-yl)amino)ethyl)-4-fluorophenyl)-6-(trifluoromethyl)nicotinamide], the pIC50 in assay [1] and in assay [2] was above 6.52 throughout.
As for `CCc1cc2ncc(N[C@@H](C)c3cc(NC(=O)c4ccc(C(F)(F)F)nc4)ccc3F)nc2s1` [Compound 620, (S)-N-(3-(1-((6-ethylthieno[2,3-b]pyrazin-3-yl)amino)ethyl)-4-fluorophenyl)-6-(trifluoromethyl)nicotinamide], the pIC50 in assay [1] and in assay [2] was above 6.52 throughout.
For the molecule `CCn1cc2ncc(N[C@@H](C)c3cccc(NC(=O)Cc4cccc(Cl)c4)c3)nc2n1` [Compound 621, (S)-2-(3-chlorophenyl)-N-(3-(1-((2-ethyl-2H-pyrazolo[3,4-b]pyrazin-6-yl)amino)ethyl)phenyl)acetamide], the pIC50 in assay [1] and in assay [2] was above 6.52 throughout.
Consider `CCn1cc2ncc(N[C@@H](C)c3cccc(NC(=O)Cc4cccc(C)c4)c3)nc2n1` [Compound 622, (S)-N-(3-(1-((2-ethyl-2H-pyrazolo[3,4-b]pyrazin-6-yl)amino)ethyl)phenyl)-2-(m-tolyl) acetamide], for which the negative-log IC50 (pIC50) in assay [1] and in assay [2] was above 6.52 throughout.
For `CCn1cc2ncc(N[C@@H](C)c3cccc(NC(=O)Cc4cncc(F)c4)c3)nc2n1` [Compound 623, (S)-N-(3-(1-((2-ethyl-2H-pyrazolo[3,4-b]pyrazin-6-yl)amino)ethyl)phenyl)-2-(5-fluoropyridin-3-yl)acetamide], the pIC50 in assay [1] is at most 6.00; in assay [2], 6.00 to 6.52.

(Values after patent publication US20230102554A1 (GB002, INC., priority 2019, published 2023).)
